Numbers after ± are expanded uncertainties.
Experiments:
[1] = refractive index (Na D-line) (dimensionless); conditions: 298.15 K; 101.33 kPa; Liquid
[2] = 298.15 K; 101.33 kPa; Liquid; Vibrating tube method
[3] = refractive index (Na D-line) (dimensionless); xn = mol fraction of the nth substance listed; conditions: 298.15 K, 101.32 kPa, Liquid
[4] = xn = mol fraction of the nth substance listed; conditions: 298.15 K, 101.32 kPa, Liquid, Vibrating tube method

CCO [ethanol]
Conditions	mass density [kg/m3]	refractive index
[1]	–	1.3592 ± 0.0016
[2]	785.32 ± 0.43	–

CCI [iodoethane]
Conditions	mass density [kg/m3]	refractive index
[1]	–	1.5095 ± 0.0016
[2]	1923.75 ± 0.76	–

CCI [iodoethane] + CCCO
Conditions	mass density, [4] [kg/m3]	refractive index, [3]
x2 = 0.0332	1887.25 ± 0.99	1.505 ± 0.0025
x2 = 0.0469	1872.23 ± 0.99	1.503 ± 0.0025
x2 = 0.0528	1865.57 ± 0.99	1.502 ± 0.0025
x2 = 0.2862	1611.62 ± 0.89	1.4688 ± 0.0025
x2 = 0.3861	1501.9 ± 0.87	1.4567 ± 0.0025
x2 = 0.4714	1407.06 ± 0.86	1.447 ± 0.0025
x2 = 0.5981	1264.7 ± 0.84	1.4299 ± 0.0025
x2 = 0.6984	1150.74 ± 0.83	1.418 ± 0.0025
x2 = 0.7894	1046.25 ± 0.82	1.4077 ± 0.0025
x2 = 0.8728	949.54 ± 0.82	1.397 ± 0.0025
x2 = 0.9101	905.96 ± 0.82	1.393 ± 0.0025

CCI [iodoethane] + CCO
Conditions	mass density, [4] [kg/m3]	refractive index, [3]
x2 = 0.0481	1880.86 ± 0.91	1.503 ± 0.0025
x2 = 0.0942	1839.5 ± 0.9	1.4971 ± 0.0025
x2 = 0.2302	1712.7 ± 0.86	1.479 ± 0.0025
x2 = 0.29	1654.4 ± 0.87	1.4701 ± 0.0025
x2 = 0.3989	1543.6 ± 0.85	1.4535 ± 0.0025
x2 = 0.4889	1447.12 ± 0.86	1.442 ± 0.0025
x2 = 0.6035	1316.7 ± 0.86	1.4241 ± 0.0025
x2 = 0.687	1215.7 ± 0.89	1.4093 ± 0.0025
x2 = 0.7935	1078.8 ± 0.91	1.3929 ± 0.0025
x2 = 0.8994	933.27 ± 0.94	1.3761 ± 0.0025
x2 = 0.9522	856.7 ± 0.97	1.3675 ± 0.0025

CCI [iodoethane] + CO
Conditions	mass density, [4] [kg/m3]	refractive index, [3]
x2 = 0.1198	1843.6 ± 0.8	1.4964 ± 0.0025
x2 = 0.1399	1829.8 ± 0.8	1.4938 ± 0.0025
x2 = 0.2068	1783 ± 0.8	1.4869 ± 0.0025
x2 = 0.26	1743.6 ± 0.8	1.4787 ± 0.0025
x2 = 0.4066	1622.2 ± 0.8	1.4578 ± 0.0025
x2 = 0.4234	1606.9 ± 0.8	1.4553 ± 0.0025
x2 = 0.4808	1552.1 ± 0.8	1.4451 ± 0.0025
x2 = 0.4954	1537.5 ± 0.8	1.4436 ± 0.0025
x2 = 0.5699	1458.5 ± 0.9	1.4302 ± 0.0025
x2 = 0.6771	1329.5 ± 0.9	1.4084 ± 0.0025
x2 = 0.7989	1156.8 ± 1	1.3821 ± 0.0025
x2 = 0.9094	969.6 ± 1.1	1.3534 ± 0.0025

CCI [iodoethane] + Cc1ccccc1
Conditions	mass density, [4] [kg/m3]	refractive index, [3]
x2 = 0.1279	1749.5 ± 1	1.5056 ± 0.0025
x2 = 0.2014	1655.8 ± 1	1.5038 ± 0.0025
x2 = 0.3085	1526.9 ± 0.9	1.5012 ± 0.0025
x2 = 0.3955	1428.3 ± 0.9	1.5002 ± 0.0025
x2 = 0.4476	1371.7 ± 0.8	1.499 ± 0.0025
x2 = 0.4678	1350.2 ± 0.8	1.4992 ± 0.0025
x2 = 0.4961	1320.5 ± 0.8	1.4983 ± 0.0025
x2 = 0.5735	1241.7 ± 0.8	1.4974 ± 0.0025
x2 = 0.6009	1214.7 ± 0.8	1.4968 ± 0.0025
x2 = 0.6974	1122.5 ± 0.7	1.4959 ± 0.0025
x2 = 0.7276	1094.6 ± 0.7	1.4957 ± 0.0025
x2 = 0.7984	1031 ± 0.7	1.4948 ± 0.0025
x2 = 0.8866	954.9 ± 0.7	1.4943 ± 0.0025
x2 = 0.9322	916.9 ± 0.7	1.494 ± 0.0025

CO [methanol]
Conditions	mass density [kg/m3]	refractive index
[1]	–	1.3262 ± 0.0016
[2]	787.98 ± 0.43	–

CCCO [propan-1-ol]
Conditions	mass density [kg/m3]	refractive index
[1]	–	1.3829 ± 0.0016
[2]	799.69 ± 0.43	–

Cc1ccccc1 [toluene]
Conditions	mass density [kg/m3]	refractive index
[1]	–	1.4938 ± 0.0016
[2]	862.28 ± 0.43	–

Cc1ccccc1 [toluene] + CCCO
Conditions	mass density, [4] [kg/m3]	refractive index, [3]
x1 = 0.0609	805.41 ± 0.43	1.3918 ± 0.0025
x1 = 0.0969	808.53 ± 0.43	1.397 ± 0.0025
x1 = 0.1939	816.4 ± 0.43	1.4108 ± 0.0025
x1 = 0.3036	824.3 ± 0.43	1.4249 ± 0.0025
x1 = 0.3965	830.4 ± 0.43	1.4349 ± 0.0025
x1 = 0.4988	836.58 ± 0.43	1.4469 ± 0.0025
x1 = 0.5524	839.64 ± 0.43	1.4509 ± 0.0025
x1 = 0.5932	841.82 ± 0.43	1.4533 ± 0.0025
x1 = 0.692	847.02 ± 0.43	1.466 ± 0.0025
x1 = 0.77	851.01 ± 0.43	1.473 ± 0.0025
x1 = 0.9274	858.78 ± 0.43	1.4873 ± 0.0025
x1 = 0.9343	859.08 ± 0.43	1.488 ± 0.0025

Cc1ccccc1 [toluene] + CCO
Conditions	mass density, [4] [kg/m3]	refractive index, [3]
x1 = 0.0476	792.25 ± 0.44	1.3699 ± 0.0025
x1 = 0.1205	801.71 ± 0.44	1.385 ± 0.0025
x1 = 0.1948	810 ± 0.43	1.3993 ± 0.0025
x1 = 0.2994	820.14 ± 0.43	1.4163 ± 0.0025
x1 = 0.3992	828.34 ± 0.43	1.4311 ± 0.0025
x1 = 0.4884	834.71 ± 0.43	1.443 ± 0.0025
x1 = 0.5577	839.3 ± 0.43	1.4518 ± 0.0025
x1 = 0.5994	841.81 ± 0.43	1.4565 ± 0.0025
x1 = 0.7159	848.36 ± 0.43	1.4682 ± 0.0025
x1 = 0.7646	850.92 ± 0.43	1.4732 ± 0.0025
x1 = 0.8915	857.06 ± 0.43	1.485 ± 0.0025
x1 = 0.8917	857.09 ± 0.43	1.485 ± 0.0025

Cc1ccccc1 [toluene] + CO
Conditions	mass density, [4] [kg/m3]	refractive index, [3]
x1 = 0.0491	797.2 ± 0.4	1.3464 ± 0.0025
x1 = 0.1058	806.2 ± 0.4	1.366 ± 0.0025
x1 = 0.199	818.1 ± 0.4	1.3921 ± 0.0025
x1 = 0.3361	831.1 ± 0.4	1.4215 ± 0.0025
x1 = 0.4097	836.6 ± 0.4	1.4337 ± 0.0025
x1 = 0.4501	839.2 ± 0.4	1.4402 ± 0.0025
x1 = 0.5024	842.4 ± 0.4	1.4478 ± 0.0025
x1 = 0.5393	844.4 ± 0.4	1.4527 ± 0.0025
x1 = 0.5818	846.6 ± 0.4	1.4579 ± 0.0025
x1 = 0.6961	851.7 ± 0.4	1.47 ± 0.0025
x1 = 0.7764	854.8 ± 0.4	1.4778 ± 0.0025
x1 = 0.8695	858 ± 0.4	1.485 ± 0.0025
x1 = 0.9416	860.2 ± 0.4	1.4904 ± 0.0025
